No end group written: not given here.
Experiments:
[1] = test system: human dermis fibroblasts; assay: Effects on the growth of human dermis fibroblasts (DNA cell content, Hoechst 33258); assay type: cell-based; settings: for DNA after culture for 3 days / DNA after culture for 6 days: % relative to control medium, mean of four tests in triplicate
Procedure: The object of this test is to examine the regenerating and revitalising activities of cultures of human dermis fibroblasts in vitro.
Human dermis fibroblasts were incubated in a standard medium for cell cultures with foetal calf serum (FCS). After culture for one day at 37° C. and with a 5% content of CO2, the medium was changed for a standard medium with different concentrations of peptides. After further incubation for three days and six days, the number of living cells was established by establishing the DNA cell content with a fluorescent probe (Hoechst 33258).

[2] = test system: human dermal fibroblast; assay: Human dermal fibroblast mRNA profile on cDNA-array (Panhuman 10K); assay type: cell-based; settings: for Expression evolution / Log2 (treated/non-treated): 5 μg/ml
Procedure: The aim of this study is to detect the variation of mRNA profile of human dermal fibroblast induced by treatment with the PTH(29-32) peptide fragment.
Normal human dermal fibroblast were cultured in standard medium supplemented with foetal calf serum (FCS) during three days in a 5% CO2 atmosphere. After cultures, the medium was changed by a standard medium either supplemented with PTH(29-32) peptide fragment at 5 μg/ml or not. After an incubation of either 3 or 24 hours, cultures were arrested and total RNAs of the different cultures were extracted. The cDNAs obtained from peptide-treated RNAs or from non-treated RNAs were labelled with cyanine-3 and cyanine-5, respectively.
Mixture of treated and non-treated cDNAs were hybridised on commercially Panhuman® 10K (MW Biotech, Roissy Charles-de-Gaulle, France) cDNA-array allowing to study near to 10,000 gene expressions. After highly stringent washing, cyanine-3 and cyanine-5 fluorescences were measured, allowing to evaluate a […] expression ratio of each analyzed gene.
Results are expressed as Log2 of the ratio between the measured expression of genes in the treated vs non-treated conditions.

[3] = test system: protein kinase C (PKC); settings: osteosarcoma cells of ROS 17/2 rats; Jouishomme et al. 1992, 1994; cited from earlier work
[4] = test system: lumican; assay: Stimulation of the synthesis of lumican on aged human dermal fibroblasts (immunocytochemistry, image analysis); assay type: cell-based; settings: aged human dermal fibroblasts in culture
Procedure: Human dermal fibroblasts cell suspension were prepared by standard digestion by collagenase of human adult dermis specimens collected from plastic surgery.
After repeated passages (Hayflick model) to mimic ageing in vitro, human dermal fibroblasts were seeded in DMEM for 2 days at 37° C., CO2=5%. Then, acetyl-QDVH (1 and 3 μg/ml) is introduced and after 6 days of incubation at 37° C., CO2=5%, the expression of the lumican synthesis was evaluated on glass slides by immunocytochemistry.
Quantification of the staining was carried out by image analysis.
The results are expressed as the sum of the product of number of pixels by green detected values (arbitrary unit).

[5] = test system: collagen type I; assay: Collagen type I gene expression in human dermal fibroblasts (quantitative RT-PCR); assay type: cell-based; settings: for Ratio versus calibrator (collagen type I mRNA): incubation for 1 day, EF1α reference gene; for rate of collagen type I gene expression (in words): human dermal fibroblasts
Procedure: Human dermal fibroblasts are seeded and incubated for 3 to 5 days at 37° C., CO2=5%.
After exchange of cell culture medium to a defined cell culture medium with the products to be tested, incubation for 1 day at 37° C., CO2=5%. The recovering of cells and numeration before recovering of RNA from human dermal fibroblasts cultured in vitro.
The level of mRNA encoding the collagen type I was evaluated by quantitative RT-PCR or real time RT-PCR.
The results are firstly expressed by the crossing point (CP) which refers to the number of cycle required for the rising of a distinct fluorescence. Then the results of each sample, are calculated as a ratio referring to a reference gene or “house keeping” gene: CP of target/CP of reference gene. EF1α gene was used as internal control gene to normalise the mRNA evaluation.

[6] = col1a1, alpha 1 type i collagen, 3 h incubation
[7] = cspg2, chondroitin sulfate 2 (versican), 3 h incubation
[8] = cspg2, chondroitin sulfate 2 (versican), 24 h incubation
[9] = ctgf, connective tissue growth factor, 3 h incubation
[10] = ctgf, connective tissue growth factor, 24 h incubation
[11] = fgf2, fibroblast growth factor 2, 3 h incubation
[12] = gpc1, glypican 1 precursor, 3 h incubation
[13] = gpc1, glypican 1 precursor, 24 h incubation
[14] = itga2b, integrin alpha 2b, 3 h incubation
[15] = itgb4, integrin, beta 4, 24 h incubation
[16] = itgb5, integrin, beta 5, 3 h incubation
[17] = itgb5, integrin, beta 5, 24 h incubation
[18] = nid, nidogen (enactin), 3 h incubation
[19] = nid, nidogen (enactin), 24 h incubation
[20] = tgfbr3, transforming growth factor, beta receptor III (betaglycan), 3 h incubation
[21] = tgfbr3, transforming growth factor, beta receptor III (betaglycan), 24 h incubation
[22] = thbs1, thrombospondin 1, 24 h incubation
[23] = timp1, tissue inhibitor of metalloproteinase 1, 3 h incubation

Gln-Asp-Val-His (QDVH; Fragment of a parathyroid hormone)
growth of human dermis fibroblasts (in words) ([1]; fibroblasts cultivated from biopsies of healthy adult subjects): stimulates the growth of human dermis fibroblasts
DNA after culture for 3 days ([1]; peptide 0.001 %): 162%
DNA after culture for 6 days ([1]; peptide 0.001 %): 119%
DNA after culture for 3 days ([1]; peptide 0.003 %): 155%
DNA after culture for 6 days ([1]; peptide 0.003 %): 115%
persistence of growth-stimulating activity (in words) ([1]; without any change in the cell culture medium): still detectable after 6 days
Expression evolution ([2]; bgn, biglycan, 3 h incubation): increase
Log2 (treated/non-treated) ([2]; bgn, biglycan, 3 h incubation): 2.16
Expression evolution ([2]; bgn, biglycan, 24 h incubation): increase
Log2 (treated/non-treated) ([2]; bgn, biglycan, 24 h incubation): 0.66
Expression evolution [2, 6]: increase
Log2 (treated/non-treated) [2, 6]: 0.93
Expression evolution [2, 7]: increase
Log2 (treated/non-treated) [2, 7]: 1.32
Expression evolution [2, 8]: increase
Log2 (treated/non-treated) [2, 8]: 1.20
Expression evolution [2, 9]: increase
Log2 (treated/non-treated) [2, 9]: 0.77
Expression evolution [2, 10]: increase
Log2 (treated/non-treated) [2, 10]: 0.74
Expression evolution [2, 11]: increase
Log2 (treated/non-treated) [2, 11]: 0.86
Expression evolution [2, 12]: no variation
Log2 (treated/non-treated) [2, 12]: −0.17
Expression evolution [2, 13]: increase
Log2 (treated/non-treated) [2, 13]: 0.73
expression of fibroblast genes (in words) ([2]; growth factors, extra-cellular matrix components, DEJ components): stimulates the expression of some genes
Expression evolution [2, 14]: increase
Log2 (treated/non-treated) [2, 14]: 0.50
Log2 (treated/non-treated) ([2]; itga2b, integrin alpha 2b, 24 h incubation): 0.15
Expression evolution [2, 15]: increase
Log2 (treated/non-treated) [2, 15]: 1.15
Expression evolution [2, 16]: no variation
Log2 (treated/non-treated) [2, 16]: 0.05
Expression evolution [2, 17]: increase
Log2 (treated/non-treated) [2, 17]: 0.68
Expression evolution [2, 18]: increase
Log2 (treated/non-treated) [2, 18]: 1.76
Expression evolution [2, 19]: increase
Log2 (treated/non-treated) [2, 19]: 0.58
Expression evolution [2, 20]: increase
Log2 (treated/non-treated) [2, 20]: 2.00
Expression evolution [2, 21]: increase
Log2 (treated/non-treated) [2, 21]: 1.54
Expression evolution [2, 22]: increase
Log2 (treated/non-treated) [2, 22]: 1.52
Expression evolution [2, 23]: increase
Log2 (treated/non-treated) [2, 23]: 0.15
Log2 (treated/non-treated) ([2]; timp1, tissue inhibitor of metalloproteinase 1, 24 h incubation): −0.25
activation of protein kinase C (in words) [3]: minimum domain of PTH in a position to function fully in the activation of PKC

IL-4: IL4 (positive control) obtained from SIGMA [reference compound]
lumican expression (in words) [4]: increase of lumican expression

Leu-Gln-Asp-Val-His-Asn-Phe (LQDVHNF; Fragment of a parathyroid hormone) [PTH region (28 to 34)]
activation of protein kinase C (in words) [3]: stimulator of the protein kinase C (PKC)

TGFβ [reference compound]
Ratio versus calibrator (collagen type I mRNA) ([5]; 10 ng/ml): 2.12
rate of collagen type I gene expression (in words) [5]: strongly enhanced

acetyl-Gln-Asp-Val-His (Ac-QDVH) [Acetyl-QDVH, acetylated PTH (29-32) peptide fragment]
lumican expression (in words) ([4]; listed as acetyl-Gln-Asp-Val-His): increase of lumican expression
lumican expression (in words) ([4]; listed as acetyl-QDVH): significantly stimulated the expression of lumican with a dose-dependent effect
Ratio versus calibrator (collagen type I mRNA) ([5]; 3 μg/ml): 1.05
Ratio versus calibrator (collagen type I mRNA) ([5]; 10 μg/ml): 1.18
rate of collagen type I gene expression (in words) [5]: significantly enhanced

Source: patent US9387235B2, “Cosmetic preparations containing PTH fragments” (BASF Beauty Care Solutions France S.A.S., priority 2004, dated 2016)
